Experimental data reported in patent US7208494B2, “5HT2c receptor agonists” (Hoffmann-La Roche Inc., priority 2003, dated 2007).

How the values were obtained:
[1] = molecular target: T1, human 5-HT2B receptors (Homo sapiens, UniProt P41595); assay: Binding to 5-HT2B receptor, [3H]-5-HT, Method (b); settings: human 5-HT2B in CHO cell line, read-out: Ki (2B)
T1 construct: expressed in transfected cells; host or cells: CHO cell line
Procedure: (§1) The binding of compounds of formula (I) to serotonin receptors was determined in vitro by standard methods. The preparations were investigated in accordance with the assays given hereinafter.
Method (b): For the binding to the 5-HT2B receptor the 5-HT2B receptors were radiolabeled with [^3H]-5-HT. The affinity of the compounds for human 5-HT2B receptors in a CHO cell line was determined according to the procedure of K. Schmuck, C. Ullmer, P. Engels and H. Lubbert, FEBS Lett., 1994, 342, 85–90.

[2] = molecular target: T2, 5-HT2C receptor (Homo sapiens, UniProt P28335); assay: Binding to 5-HT2C receptor, [3H]-5-HT, Method (a); set-up: expressed in transfected cells; host or cells: CHO cell line; settings: CHO cell line, read-out: Ki (2C)
T2 sequence (P28335 33-458): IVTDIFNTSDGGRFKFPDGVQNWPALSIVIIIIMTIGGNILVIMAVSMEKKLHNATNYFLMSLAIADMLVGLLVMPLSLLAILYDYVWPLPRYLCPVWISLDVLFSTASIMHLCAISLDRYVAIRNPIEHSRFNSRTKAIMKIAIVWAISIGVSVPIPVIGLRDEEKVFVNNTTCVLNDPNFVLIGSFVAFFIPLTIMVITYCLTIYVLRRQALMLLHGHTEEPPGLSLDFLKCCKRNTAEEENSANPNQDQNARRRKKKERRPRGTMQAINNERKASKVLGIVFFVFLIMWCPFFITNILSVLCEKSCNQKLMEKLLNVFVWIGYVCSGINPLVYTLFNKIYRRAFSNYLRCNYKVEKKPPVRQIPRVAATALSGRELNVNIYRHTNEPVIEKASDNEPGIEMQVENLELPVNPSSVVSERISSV
Procedure: as §1
Method (a): For the binding to the 5-HT2C receptor the 5-HT2C receptors were radiolabeled with [^3H]-5-HT. The affinity of the compounds for 5-HT2C receptors in a CHO cell line was determined according to the procedure of D. Hoyer, G. Engel and H. O. Kalkman, European J. Pharmacol., 1985, 118, 13–23.

[3] = molecular target: T3, 5-HT2A receptor (Homo sapiens, UniProt P28223); assay: Binding to 5-HT2A receptor, [125I]-DOI, Method (c); set-up: expressed in transfected cells; host or cells: CHO cell line; settings: CHO cell line, read-out: Ki (2A)
T3 sequence (P28223 whole entry): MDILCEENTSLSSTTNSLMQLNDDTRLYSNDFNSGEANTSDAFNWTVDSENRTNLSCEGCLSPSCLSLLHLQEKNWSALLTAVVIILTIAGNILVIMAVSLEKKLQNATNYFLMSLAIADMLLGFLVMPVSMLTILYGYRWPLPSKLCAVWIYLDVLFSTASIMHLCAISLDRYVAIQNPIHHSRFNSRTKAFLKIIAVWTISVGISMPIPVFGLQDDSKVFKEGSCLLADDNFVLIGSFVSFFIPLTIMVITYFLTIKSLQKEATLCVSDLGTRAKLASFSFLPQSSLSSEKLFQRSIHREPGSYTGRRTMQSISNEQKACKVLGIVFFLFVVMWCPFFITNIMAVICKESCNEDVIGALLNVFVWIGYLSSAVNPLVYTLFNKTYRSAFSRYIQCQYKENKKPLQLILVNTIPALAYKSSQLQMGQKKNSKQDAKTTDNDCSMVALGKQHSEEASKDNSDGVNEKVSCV
Procedure: as §1
Method (c): For the binding to the 5-HT2A receptor the 5-HT2A receptors were radiolabeled with [^125I]-DOI. The affinity of the compounds for 5-HT2A receptors in a CHO cell line was determined according to the procedure of D. J. McKenna and S. J. Peroutka, J. Neurosci., 1989, 9, 3482–90.

[4] = molecular target: T2, 5-HT2C receptor; assay: Functional activity, FLIPR calcium assay, h5-HT2C; format: cell-based; set-up: expressed in transfected cells; host or cells: CHO cells; settings: for EC50: CHO cells expressing human 5-HT2C, FLIPR; for h5-HT2C Rel. Eff.: relative to response of 10 μM 5-HT (defined as 100%)
Procedure: (§2) The functional activity of compounds of formula (I) was assayed using a Fluorimetric Imaging Plate reader (FLIPR). CHO cells expressing the human 5-HT2C or human 5-HT2A receptors were counted and plated into standard 96 well microtitre plates on the day before testing to give a confluent monolayer. The cells were then dye loaded with the calcium sensitive dye, Fluo-3-AM. Unincorporated dye was removed using an automated cell washer to leave a total volume of 100 μL/well of assay buffer (Hanks balanced salt solution containing 20 mM Hepes and 2.5 mM probenecid). The drug (dissolved in 50 μL of the assay buffer) was added at a rate of 70 μL/sec to each well of the FLIPR 96 well plate during fluorescence measurements. The measurements were taken at 1 sec intervals and the maximum fluorescent signal was measured (approx 10–15 secs after drug addition) and compared with the response produced by 10 μM 5-HT (defined as 100%) to which it was expressed as a percentage response (relative efficacy). Dose response curves were constructed using Graphpad Prism (Graph Software Inc.).

[5] = molecular target: T3, 5-HT2A receptor; assay: Functional activity, FLIPR calcium assay, h5-HT2A; format: cell-based; set-up: expressed in transfected cells; host or cells: CHO cells; settings: for EC50: CHO cells expressing human 5-HT2A, FLIPR; for h5-HT2A Rel. Eff.: relative to response of 10 μM 5-HT (defined as 100%)
Procedure: as §2

T1 sequence (P41595 whole entry): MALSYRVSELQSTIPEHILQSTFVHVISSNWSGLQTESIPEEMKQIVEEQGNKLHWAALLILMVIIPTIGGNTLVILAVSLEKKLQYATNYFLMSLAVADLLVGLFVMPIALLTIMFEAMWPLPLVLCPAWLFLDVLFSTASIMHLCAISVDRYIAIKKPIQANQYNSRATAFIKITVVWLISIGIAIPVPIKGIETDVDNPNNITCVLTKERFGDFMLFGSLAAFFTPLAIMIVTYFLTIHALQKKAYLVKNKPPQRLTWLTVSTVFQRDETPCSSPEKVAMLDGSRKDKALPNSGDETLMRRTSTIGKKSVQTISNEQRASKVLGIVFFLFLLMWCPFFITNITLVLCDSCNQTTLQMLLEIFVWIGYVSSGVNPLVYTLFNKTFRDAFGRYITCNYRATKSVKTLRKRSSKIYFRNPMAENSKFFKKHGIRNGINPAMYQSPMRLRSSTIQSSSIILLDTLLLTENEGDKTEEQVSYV

## CO[C@H](C)c1nc2c(cc1Cl)C[C@@H]1CNC[C@@H](C)N21 [Example 46, (4R,9aR)-7-Chloro-6-(1-(R)-methoxy-ethyl)-4-methyl-1,2,3,4,9,9a-hexahydro-2,4a,5-triaza-fluorene]
[1]
  Ki: 84 nM
[2]
  Ki: 9 nM
[3]
  Ki: 195 nM
[4]
  EC50: 13 nM
  h5-HT2C Rel. Eff.: 100%
[5]
  EC50: 273 nM
  h5-HT2A Rel. Eff.: 50%

## C[C@@H]1CNC[C@H]2Cc3cc(Cl)c(C(F)F)nc3N21 [Example 23, (4R,9aR)-7-Chloro-6-difluoromethyl-4-methyl-1,2,3,4,9,9a-hexahydro-2,4a,5-triaza-fluorene]
[1]
  Ki: 12 nM
[2]
  Ki: 8 nM
[3]
  Ki: 25 nM
[4]
  EC50: 14 nM
  h5-HT2C Rel. Eff.: 97%
[5]
  EC50: 70 nM
  h5-HT2A Rel. Eff.: 56%

## Cc1c(F)cnc2c1C[C@@H]1CNC[C@@H](C)N21 [Example 80, (4R,9aR)-7-Fluoro-4,8-dimethyl-1,2,3,4,9,9a-hexahydro-2,4a,5-triaza-fluorene]
[1]
  Ki: 87 nM
[2]
  Ki: 6 nM
[3]
  Ki: 86 nM
[4]
  EC50: 13 nM
  h5-HT2C Rel. Eff.: 98%
[5]
  EC50: 178 nM
  h5-HT2A Rel. Eff.: 56%
